Among the data in BindingDB's records for patent WO2024074497 (Forx Therapeutics, 2024) are IC50 values, retold here.

Molecules are shown by their SMILES.

The target of this experiment is T1, Poly(ADP-ribose) glycohydrolase [448-976,L473S,N479S,S802A,R811K,M841I,S858P,I916T,T924D,D927K,C963S,A967T] (UniProt Q86W56, A967T/C963S/D927K/I916T/L473S/M841I/N479S/R811K/S802A/S858P/T924D).
T1 construct: 448-976
Nature of the experiment: PARG enzymatic IC50 assay. As for the experimental part:
PARG enzyme as incubated with compound or vehicle (DMSO) for 15 minutes or 2 hours in a 384 well plate. After adding the PARG substrate ADP-ribose-pNP, the plate was read for absorbance intensity at 405 nm. The vehicle (DMSO) with high absorbance intensity represents no inhibition of enzymatic reaction while the low control (no enzyme) with low absorbance intensity represents full inhibition of enzymatic reaction.

T1 sequence (Q86W56 448-976 L473S/N479S/S802A/R811K/M841I/S858P/I916T/T924D/D927K/C963S/A967T): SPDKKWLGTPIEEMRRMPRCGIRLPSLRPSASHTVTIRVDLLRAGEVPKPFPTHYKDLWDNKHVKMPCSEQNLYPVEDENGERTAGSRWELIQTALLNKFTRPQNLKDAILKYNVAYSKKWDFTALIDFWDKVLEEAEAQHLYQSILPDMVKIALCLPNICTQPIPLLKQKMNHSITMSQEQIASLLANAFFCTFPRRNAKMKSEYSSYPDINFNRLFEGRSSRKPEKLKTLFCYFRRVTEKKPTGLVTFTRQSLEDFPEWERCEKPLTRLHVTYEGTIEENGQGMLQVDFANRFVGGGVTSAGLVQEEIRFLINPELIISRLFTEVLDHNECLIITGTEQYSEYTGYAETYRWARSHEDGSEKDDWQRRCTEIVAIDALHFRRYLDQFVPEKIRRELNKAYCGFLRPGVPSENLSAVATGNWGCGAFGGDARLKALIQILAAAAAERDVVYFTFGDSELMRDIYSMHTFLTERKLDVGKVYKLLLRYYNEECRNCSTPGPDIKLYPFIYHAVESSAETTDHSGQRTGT

As usually defined, the IC50 is the concentration that gives 50% inhibition. A lower IC50 goes with greater potency in that assay. The compound `C[C@H]1CN(c2cc(S(=O)(=O)NC3(C)CC3)cn3c(-c4nnc(C(F)F)s4)ncc23)C[C@H](C)N1` [WO2024074497, Example 1] registered an IC50 of 0.11 µM. In other words, the sub-micromolar range.
